Columns and labels:
[1] = test system: human breast carcinoma cell line MT-3; experiment: Efficacy in mice: MT-3 breast xenografts on nude mice; assay type: in vivo, NMRI nude female mice; conditions: 4 mg/kg/inj. weekly i.v.; treated tumors divided with control tumors; Cisplatin at day 31, LiPlaCis at day 26
Protocol: NMRI nude female mice (6-8 weeks) were inoculated subcutaneously into the left flank with 1*10^7 cells of the human breast carcinoma cell line MT-3. Only mice carrying exponentially growing tumors were selected for the study. […] Tumor growth was assessed three times a week by measuring two perpendicular diameters and tumor growth was normalized for differing starting sizes by calculating relative tumor volume. Body weight was measured three times a week. Blood samples were taken four days after the first injection to estimate white blood cells and thrombocytes by Coulter counter.

[2] = comparison value for cisplatin, within 3 hours; cited from earlier work

Q: With `N.N.[Cl][Pt][Cl]` [Cisplatin, cisplatin] as the molecule, how does the “Optimum T/C (%) [at day]” value [1] read?
A: 71%

Q: And the urinary excretion [2]?
A: above 90%
